Results reported in patent publication US7507716B2, “Method for treating pain with prolactin antagonists” (Board of Regents, The University of Texas System, priority 2005, dated 2009).

Tested on: PRL mRNA
Assay: Real-time RT-PCR of PRL mRNA in trigeminal ganglia
Format: in vivo, rat
From the text: The S.A.M. and GeneSpring 5.1 analyses identified 18 genes whose expression increased and 3 genes whose expression decreased. […] The expression profile of genes selected using the microarray screen was confirmed by real-time RT-PCR. Validated primers were used for each gene and expression was normalized to the housekeeping gene 18S. Data are presented as mean±SEM (n=5/group, **=p<0.01 and ***=p<0.001 versus respective vehicle control; two-tailed unpaired T test). […] For this reason, PRL was selected for further study as a candidate therapeutic target for female-biased pain disorders.
Reactions were performed using primers specific for PRL gene and the internal control (18S). Data were normalized to the relative amount of OVX (vehicle) PRL mRNA/18S. Data are presented as mean±SEM (n=5/group, **=p<0.01 and ***=p<0.001 vs. PRL mRNA of the OVX/Vehicle group; one-way ANOVA with Bonferroni's post hoc test). […] Moreover, the relative PRL mRNA expression in the TG of intact female rats during proestrous was 78-fold greater (p<0.001). The TG samples collected from these groups were also subjected to Western blot analysis to determine the relative expression of PRL protein. […] The results obtained from these experiments were quantified as described in the METHODS section. […] The specificity of anti-PRL antibodies was evaluated by a use of the blocking peptide corresponding to the epitope of PRL. Pre-absorption of anti-PRL antibodies with the blocking peptide nearly eliminated the PRL-specific band (FIGS. 2B, 2C).
RNA isolation: Harvested TG tissue from OVX (treated with vehicle or estradiol) or intact proestrous female rats were immediately frozen in liquid nitrogen and ground in a pre-chilled mortar. The ground tissue was used to isolate total RNA by the guanidinium thiocyanate method as described previously (Chomczynski and Sacchi, 1987). […] Additional RNA sample aliquots were used as template for the quantitative real time RT-PCR experiments.
Quantitative Real Time RT-PCR (qRT-PCR): Total RNA (100 ng) was used as template in a one-step RT-PCR protocol. […]

C[C@]12CC[C@@H]3c4ccc(O)cc4CC[C@H]3[C@@H]1CC[C@@H]2O [estradiol, 17-β-estradiol]
PRL mRNA estradiol responsiveness in TG neurons (OVX rats undergoing estradiol replacement, summary statement): > 40 fold | increase in PRL mRNA expression in TG vs OVX control rats (OVX rats with estradiol replacement 80 μg/kg/day×10 days, normalized to 18S, FIG. 2A): approximately 50 fold | increase in PRL mRNA expression in response to estradiol (TG of OVX rats, 80 μg/kg/day for 10 days vs vehicle, normalized to 18S, FIG. 1): 48 fold
